Test results: US20240174674A1, “NITROGEN-CONTAINING POLYCYCLIC FUSED RING COMPOUND, PHARMACEUTICAL COMPOSITION THEREOF, PREPARATION METHOD THEREFOR, AND USE THEREOF” (APPLIED PHARMACEUTICAL SCIENCE, INC., priority 2021, published 2024)
pIC50: −log10 of the molar value. Where two headings read alike, the source gives them in different places.

Molecular target: RET G810R (Homo sapiens (Human), UniProt P07949, G810R)
Test: HTRF KinEASE-TK kinase activity test, RET G810R
Details: for inhibitory activity against RET G810R relative to that of selpercatinib (LOXO-292): fold versus selpercatinib (LOXO-292)
[1] = read-out: RET G810R IC50, HTRF kinase assay

Sequence of RET G810R (P07949 29-1114 G810R): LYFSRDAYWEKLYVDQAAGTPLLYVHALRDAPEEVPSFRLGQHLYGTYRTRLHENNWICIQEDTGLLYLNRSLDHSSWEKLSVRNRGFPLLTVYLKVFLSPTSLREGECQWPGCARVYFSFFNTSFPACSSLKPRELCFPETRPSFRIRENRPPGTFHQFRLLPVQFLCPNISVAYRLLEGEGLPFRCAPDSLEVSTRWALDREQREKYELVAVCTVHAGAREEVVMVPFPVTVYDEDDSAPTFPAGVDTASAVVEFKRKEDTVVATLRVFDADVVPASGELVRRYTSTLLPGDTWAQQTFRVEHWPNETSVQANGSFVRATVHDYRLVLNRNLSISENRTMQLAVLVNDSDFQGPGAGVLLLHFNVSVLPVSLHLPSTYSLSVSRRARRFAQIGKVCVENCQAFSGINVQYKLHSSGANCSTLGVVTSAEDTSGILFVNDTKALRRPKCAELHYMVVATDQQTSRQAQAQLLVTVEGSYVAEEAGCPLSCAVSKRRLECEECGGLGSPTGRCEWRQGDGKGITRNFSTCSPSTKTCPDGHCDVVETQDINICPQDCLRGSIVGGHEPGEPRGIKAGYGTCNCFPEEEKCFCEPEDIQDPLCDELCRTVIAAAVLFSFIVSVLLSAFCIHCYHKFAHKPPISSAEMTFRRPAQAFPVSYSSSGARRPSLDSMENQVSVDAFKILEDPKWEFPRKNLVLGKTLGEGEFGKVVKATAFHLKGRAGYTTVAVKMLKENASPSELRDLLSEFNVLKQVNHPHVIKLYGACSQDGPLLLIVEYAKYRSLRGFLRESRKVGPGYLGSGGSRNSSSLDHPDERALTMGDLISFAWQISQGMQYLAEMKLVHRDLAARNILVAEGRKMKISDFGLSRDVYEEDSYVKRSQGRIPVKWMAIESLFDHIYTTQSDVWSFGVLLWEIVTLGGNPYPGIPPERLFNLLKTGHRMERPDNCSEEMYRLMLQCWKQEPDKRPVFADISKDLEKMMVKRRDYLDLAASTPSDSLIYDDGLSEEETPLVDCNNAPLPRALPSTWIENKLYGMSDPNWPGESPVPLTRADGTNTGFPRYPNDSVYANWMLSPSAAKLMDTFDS

| Compound | inhibitory activity against RET G810R relative to that of selpercatinib (LOXO-292) [times] | pIC50 [1] | pIC50 |
| --- | --- | --- | --- |
| CCOc1cc(-c2ccc(N3CC[C@H](NC(=O)c4c(C)cccc4Cl)[C@@H](N)C3)nc2)c2c3cn[nH]c3nn2c1 [Compound 48, N-((3S,4S)-3-amino-1-(5-(6-ethoxy-1H-pyrazolo[3′,4′:3,4]pyrazolo[1,5-α]pyridin-4-yl)pyridin-2-yl)piperidin-4-yl)-2-chloro-6-methylbenzamide] | ≥ 10 | 8.54 |  |
| CCOc1cc(-c2cnc(N3CC[C@H](NC(=O)c4ncccc4Cl)[C@@H](O)C3)cn2)c2c3cn[nH]c3nn2c1 [Compound 50] |  | 7.75 |  |
| CCOc1cc(-c2cnc(N3CC[C@H](NC(=O)c4c(F)cccc4Cl)[C@@H](O)C3)cn2)c2c3cn[nH]c3nn2c1 [Compound 51] |  | 8.37 |  |
| CCOc1cc(-c2cnc(N3CCC(C)(NC(=O)c4ncc(F)cc4Cl)CC3)cn2)c2c3cn[nH]c3nn2c1 [Compound 55, 3-chloro-N-(1-(5-(6-ethoxy-1H-pyrazolo[3′,4′:3,4]pyrazolo[1,5-α]pyridin-4-yl)pyrazin-2-yl)-4-methylpiperidin-4-yl)-5-fluoro-2-picolinamide] |  | 8.35 |  |
| CCOc1cc(-c2cnc(N3CCC(C)(NC(=O)c4nc(C)ccc4Cl)CC3)cn2)c2c3cn[nH]c3nn2c1 [Compound 56] |  | 7.63 |  |
| CCOc1cc(-c2cnc(N3CCC(C)(NC(=O)c4c(F)ccc(F)c4F)CC3)cn2)c2c3cn[nH]c3nn2c1 [Compound 57, N-(1-(5-(6-ethoxy-1H-pyrazolo[3′,4′:3,4]pyrazolo[1,5-α]pyridin-4-yl)pyrazin-2-yl)-4-methylpiperidin-4-yl)-2,3,6-trifluorobenzamide] |  | 8.16 |  |
| CCOc1cc(-c2cnc(N3CCC(C)(NC(=O)c4cc(F)ccc4Cl)CC3)cn2)c2c3cn[nH]c3nn2c1 [Compound 58, 2-chloro-N-(1-(5-(6-ethoxy-1H-pyrazolo[3′,4′:3,4]pyrazolo[1,5-α]pyridin-4-yl)pyrazin-2-yl)-4-methylpiperidin-4-yl)-5-fluorobenzamide] |  | 8.25 |  |
| CCOc1cc(-c2cnc(N3CCC(C)(NC(=O)c4ncccc4Cl)CC3)cn2)c2c3cn[nH]c3nn2c1 [Compound 59, 3-chloro-N-(1-(5-(6-ethoxy-1H-pyrazolo[3′,4′:3,4]pyrazolo[1,5-α]pyridin-4-yl)pyrazin-2-yl)-4-methylpiperidin-4-yl)-2-picolinamide] |  |  | 8.34 |
| CCOc1cc(-c2ccc(N3CCC(CO)(C(=O)NCC(C)C)CC3)nc2)c2c3cn[nH]c3nn2c1 [Compound 87, 1-(5-(6-ethoxy-1H-pyrazolo[3′,4′:3,4]pyrazolo[1,5-α]pyridin-4-yl)pyridin-2-yl)-4-(hydroxymethy 1)-N-isobutylpiperidine-4-carboxamide] |  | 8.03 |  |
| CCOc1cc(-c2ccc(N3CC[C@H](NC(=O)C(C)C(C)C)[C@@H](O)C3)nc2)c2c3cn[nH]c3nn2c1 (some centres unmarked) [Compound 89] | ≥ 10 | 8.70 |  |
| CCOc1cc(-c2cnc(N3CC[C@H](NC(=O)c4cc(F)ccc4Cl)[C@@H](O)C3)cn2)c2c3cn[nH]c3nn2c1 [Compound 91] | ≥ 10 | 8.66 |  |
| CCOc1cc(-c2ccc(N3CCC(S(=O)(=O)NC(C)C)CC3)nc2)c2c3cn[nH]c3nn2c1 [Compound 101, 1-(5-(6-ethoxy-1H-pyrazolo[3′,4′:3,4]pyrazolo[1,5-α]pyridin-4-yl)pyridin-2-yl)-N-isopropylpiperidine-4-sulfonamide] |  | 8.18 |  |
| CCOc1cc(-c2ccc(N3CCC(O)(CNS(=O)(=O)c4ccccc4)CC3)nc2)c2c3cn[nH]c3nn2c1 [Compound 102, N-((1-(5-(6-ethoxy-1H-pyrazolo[3′,4′:3,4]pyrazolo[1,5-α]pyridin-4-yl)pyridin-2-yl)-4-hydroxypiperidin-4-yl)methylene)benzenesulfonamide] | ≥ 10 | 8.44 |  |
| CCOc1cc(-c2ccc(N3CCC(Oc4ccccn4)CC3)nc2)c2c3cn[nH]c3nn2c1 [Compound 103, 6-ethoxy-4-(6-(4-(pyridin-2-yloxy)piperidin-1-yl)pyridin-3-yl)-1H-pyrazolo[3′,4′:3,4]pyrazolo[1,5-α]pyridine] |  | 7.95 |  |
| CCOc1cc(-c2ccc(N3CCC(Oc4ccc(C)nn4)CC3)nc2)c2c3cn[nH]c3nn2c1 [Compound 104, 6-ethoxy-4-(6-(4-((6-methylpyridazin-3-yl)oxy)piperidin-1-yl)pyridin-3-yl)-1H-pyrazolo[3′,4′:3,4]pyrazolo[1,5-α]pyridine] |  | 8.19 |  |
| CCOc1cc(-c2ccc(N3CC[C@H](NCc4c(F)cccc4Cl)[C@@H](O)C3)nc2)c2c3cn[nH]c3nn2c1 [Compound 107, (3S,4S)-4-((2-chloro-6-fluorobenzyl)amino)-1-(5-(6-ethoxy-1H-pyrazolo[3′,4′:3,4]pyrazolo[1,5-α ]pyridin-4-yl)pyridin-2-yl)piperidin-3-ol] |  |  | 7.84 |
| CCOc1cc(-c2ccc(N3CC4COCC(C3)N4Cc3ccc(OC)nc3)nc2)c2c3cn[nH]c3nn2c1 [Compound 114, 7-(5-(6-ethoxy-1H-pyrazolo[3′,4′:3,4]pyrazolo[1,5-α]pyridin-4-yl)pyridin-2-yl)-9-((6-methoxypyridin-3-yl)methylene)-3-oxa-7,9-diazabicyclo[3.3.1]nonane] | ≥ 10 | 8.44 |  |
| CCOc1cc(-c2ccc(N3C[C@H]4CN(C(=O)c5c(F)cccc5Cl)C[C@H]4C3)nc2)c2c3cn[nH]c3nn2c1 [Compound 118, N-((3aR,6aS)-5-(5-(6-ethoxy-1H-pyrazolo[3′,4′:3,4]pyrazolo[1,5-α]pyridin-4-yl)pyridin-2-yl)hexahydropyrrolo[3,4-c]pyrrol-2(1H)-yl)-2-chloro-6-fluorobenzamide] |  | 8.11 |  |
| CCOc1cc(-c2ccc(N3CCC(CO)(NC(=O)c4cc(F)ccc4F)CC3)nc2)c2c3cn[nH]c3nn2c1 [Compound 150, N-(1-(5-(6-ethoxy-1H-pyrazolo[3′,4′:3,4]pyrazolo[1,5-α]pyridin-4-yl)pyridin-2-yl)-4-(hydroxymethyl)piperidin-4-yl)-2,5-difluorobenzamide] |  | 8.36 |  |
| CCOc1cc(-c2ccc(N3C[C@H]4CN(Cc5ccc(OC)nc5)C[C@H]4C3)nc2)c2c3cn[nH]c3nn2c1 [Compound 152, 6-ethoxy-4-(6-((3aR,6aS)-5-((6-methoxypyridin-3-yl)methylene)-hexahydropyrrolo[3,4-c]pyrrol-2(1H)-yl)pyridin-3-yl)-1H-pyrazolo[3′,4′:3,4]pyrazolo[1,5-α]pyridine] |  | 8.39 |  |
| CCOc1cc(-c2ccc(N3CC4CCC(C3)N4C(=O)c3c(F)cccc3Cl)nc2)c2c3cn[nH]c3nn2c1 [Compound 155, (2-chloro-6-fluoro)((1R,5S)-3-(5-(6-ethoxy-1H-pyrazolo[3′,4′:3,4]pyrazolo[1,5-α]pyridin-4-yl)pyridin-2-yl)-3,8-diazabicyclo[3.2.1]octan-8-yl)benzamide] |  | 7.85 |  |
| CCOc1cc(-c2ccc(N3CC4CCC(C3)N4Cc3ccc(OC)nc3)nc2)c2c3cn[nH]c3nn2c1 [Compound 156, 6-ethoxy-4-(6-((1R,5S)-8-((6-methoxypyridin-3-yl)methyl)-3,8-diazabicyclo[3.2.1]octan-3-yl)pyridin-3-yl)-1H-pyrazolo[3′,4′:3,4]pyrazolo[1,5-α]pyrazole] |  | 7.94 |  |
| CCOc1cc(-c2ccc(N3C4CCC3CN(C(=O)c3c(F)cccc3Cl)C4)nc2)c2c3cn[nH]c3nn2c1 [Compound 157, (2-chloro-6-fluoro)((1R,5S)-8-(5-(6-ethoxy-1H-pyrazolo[3′,4′:3,4]pyrazolo[1,5-α]pyridin-4-yl)pyridin-2-yl)-3,8-diazabicyclo[3.2.1]octan-3-yl)benzamide] |  | 8.07 |  |
| CCOc1cc(-c2ccc(N3C4CCC3CN(Cc3ccc(OC)nc3)C4)nc2)c2c3cn[nH]c3nn2c1 [Compound 158, 6-ethoxy-4-(6-((1R,5S)-3-((6-methoxypyridin-3-yl)methyl)-3,8-diazabicyclo[3.2.1]octan-3-yl)pyridin-8-yl)-1H-pyrazolo[3′,4′:3,4]pyrazolo[1,5-α]pyrazole] |  | 7.73 |  |
| CCOc1cc(-c2ccc(N3CC4CCC3CN4C(=O)c3c(F)cccc3Cl)nc2)c2c3cn[nH]c3nn2c1 (centres unmarked) [Compound 159] |  | 7.79 |  |
| CCOc1cc(-c2ccc(N3CC4CCC3CN4Cc3ccc(OC)nc3)nc2)c2c3cn[nH]c3nn2c1 (stereo not drawn) [Compound 160, 6-ethoxy-4-(6-(5-((6-methoxypyridin-3-yl)methyl)-2,5-diazabicyclo[2.2.2]octan-2-yl)pyridin-3-y 1)-1H-pyrazolo[3′,4′:3,4]pyrazolo[1,5-α]pyridine] |  | 8.09 |  |
| CCOc1cc(-c2ccc(N3CCN(Cc4ccc(OC)nc4)C4(CC4)C3)nc2)c2c3cn[nH]c3nn2c1 [Compound 165, 6-ethoxy-4-(6-(4-((6-methoxypyridin-3-yl)methylene)-4,7-diazaspiro[2.5]octan-7-yl)pyridin-3-yl) -1H-pyrazolo[3′,4′:3,4]pyrazolo[1,5-α]pyridine] |  | 7.42 |  |
| CCOc1cc(-c2ccc(N3CC4COCC(C3)N4C(=O)c3c(F)cccc3Cl)nc2)c2c3cn[nH]c3nn2c1 [Compound 169, N-(7-(5-(6-ethoxy-1H-pyrazolo[3′,4′:3,4]pyrazolo[1,5-α]pyridin-4-yl)pyridin-2-yl)-3-oxa-7,9-azabicyclo[3.3.1]nonan-9-yl)-2-chloro-6-fluorobenzamide] |  | 8.32 |  |
| CCOc1cc(-c2ccc(N3C[C@@H]4[C@H](C3)[C@H]4NC(=O)c3c(F)cccc3Cl)nc2)c2c3cn[nH]c3nn2c1 [Compound 170, 2-chloro-N-((1R,5S,6S)-3-(5-(6-ethoxy-1H-pyrazolo[3′,4′:3,4]pyrazolo[1,5-α]pyridin-4-yl)pyridin-2-yl)-3-azabicyclo[3.1.0]hexan-6-yl)-6-fluorobenzamide] |  | 7.56 |  |
| CCOc1cc(-c2ccc(N3C[C@@H]4[C@H](C3)[C@@H]4NC(=O)c3c(F)cccc3Cl)nc2)c2c3cn[nH]c3nn2c1 [Compound 172, 2-chloro-N-((1R,5S,6R)-3-(5-(6-ethoxy-1H-pyrazolo[3′,4′:3,4]pyrazolo[1,5-α]pyridin-4-yl)pyridin-2-yl)-3-azabicyclo[3.1.0]hexan-6-yl)-6-fluorobenzamide] |  | 8.09 |  |
